What was measured:
S. aureus (ATCC®6538™) = experiment: Microbial challenge testing in alginogel with GOX+LPO; assay type: cell-based; conditions: for antimicrobial efficacy against S. aureus of halide alone, 0 vs 80 minute timepoint: alginogel, halide alone (without enzymes) 0.03% (v/v)
Method: To determine the ability of an antimicrobial agent to elicit an antimicrobial preserving efficacy in a gel environment, a microbiological challenge test can be performed. Here, the antimicrobial agent is a combination of the natural enzymes GOX+LPO. […] Microbial challenge testing was performed according to the method described in the European Pharmacopoeia current version chapter 5.1.3 ‘Efficacy of antimicrobial preservation’, but with adapted time points (0, 10, 20, 30, 40, 50, 60, 70 and 80 min instead of 0, 2, 7, 14 and 28 days). In brief, for every enhancing agent to be evaluated, a lab-scale alginogel (based on the Flaminal® formulation, but without the original enhancer guaiacol) including 0.0075% GOX+LPO (1:1) was prepared according to standard practices. Enhancing agents were added to the alginogel in a final concentration ranging from 0.01 to 0,00025% (v/w). As a reference, an alginogel including 0.0075% GOX+LPO (1:1) without the addition of any enhancing agent was included (designated as: enzymes only). As a control, an alginogel without both GOX+LPO (1:1) enzyme solution and enhancing agent (designated as: empty gel) as well as an alginogel only containing the enhancing agent only (designated as: enhancing candidate only) were included. After preparation, a homogenous sample of 10 g was transferred into a 50 ml conical tube for each alginogel to be evaluated and microorganism to be tested. For each test microorganism, including S. aureus (ATCC®6538™), P. aeruginosa (ATCC®9027™), C. albicans (ATCC®10231™) and A. niger (ATCC®16404 ™), a microbial suspension of about 10^8 CFU/ml was prepared in sterile diluent (buffered sodium chloride-peptone solution). Then, the 50 ml conical tubes containing the alginogel samples to be evaluated were inoculated with 100 μl of the designated inoculum. At the start (time point 0) and after 0, 10, 20, 30, 40, 50, 60, 70 and 80 min, the number of viable microorganisms per gram product (expressed as CFU/g) was determined by transferring a sample of 0.5 g of the product into a 15 ml conical tube containing 4.5 ml of sterile diluent and applying general dilution and plate count techniques. For each combination evaluated, this test was repeated at least 1-3 times. The collected data were further analyzed in MS Excel. Mean absolute counts (expressed as log CFU/g) were visualized in a graph.
The purpose of the hereby described experiment was to compare the efficacy of antimicrobial activity enhancement of the GOX+LPO (1:1) enzyme combination by ethanolamine and proline in a microbial challenge test using S. aureus. The test was set up as described in the section on ‘challenge testing’ in Example 2.4. The test was repeated at least 3 times.
The purpose of the hereby described experiment was to compare the efficacy of antimicrobial activity of the GOX+LPO (1:1) enzyme combination in the presence of potassium chloride/potassium bromide and potassium iodide. A microbial challenge test using S. aureus was performed. The test was set up as described in the section on ‘challenge testing’ in Example 2.4.

GOX = GOX (Aspergillus niger, UniProt P13006); experiment: Glucose oxidase (GOX) activity, spectrophotometric assay; assay type: biochemical; conditions: cysteine 1-0.1 mg/ml (FIG. 1)
Method: The natural enzyme GOX is an oxidoreductase that catalyses the oxidation of glucose to gluconic acid and hydrogen peroxide (H2O2) in the presence of water and air. To measure the enzymatic activity of GOX, a standard spectrophotometric assay is performed. In brief, a second oxidoreductase enzyme, peroxidase, and a chromogenic oxygen acceptor, o-dianisidine, are added to the former reaction mix (GOX+glucose+water+air) so that the formation of a coloured compound is achieved that can in turn be measured by spectrophotometry. GOX was tested in 4 different concentrations, i.e., 100, 50, 10 and 1 mg/ml. Each reaction mixture was tested in duplo. In the event GOX activity was evaluated in the presence of a potentiator candidate (=a molecule that might be able to augment the enzymatic activity of GOX), the latter was added in a low and high concentration ranging from 100 to 0.1 mg/ml. The blank consisted of the reaction mix in which the enzymes were absent. After mixing all reaction elements, absorbance was immediately measured with a plate reader (Spectramax ID3, Molecular Devices) every minute for 5 minutes at 35° C. For each combination evaluated, this test was repeated at least 2 times. Results were further analysed in MS Excel and expressed as U/g. Mean blank-corrected data±SD were plotted. Statistical significance compared to the combination without potentiator candidate (reference) was calculated using students' t-tests. Significance is achieved when the obtained p-value is lower than 0,05. Significance levels were defined as p<0.05=*; p<0.01=** and p<0.001=***.

[1] = system: Pseudomonas aeruginosa ATCC®9027™; experiment: MBC determination, broth microdilution with CFU enumeration; assay type: cell-based; conditions: P. aeruginosa; guaiacol added as enhancing agent
Method: The minimal bactericidal concentration (MBC) is defined as the lowest concentration of an antimicrobial agent that results in a complete killing of the microbial population (determined via standard CFU enumeration techniques) after overnight incubation. This endpoint measurement is used, together with the MIC (see above), to define the microbial susceptibility towards an antimicrobial agent. Here, the antimicrobial agent is a combination of the natural enzymes GOX+LPO.
To determine the MBC of the described combinations, a classical broth microdilution assay combined with standard CFU enumeration techniques was used to determine the susceptibility of a series of microbes commonly detected in infected wounds, including (a) the Gram-positive bacterium Staphylococcus aureus ATCC® 6538™ (results shown below), (b) the Gram-negative bacterium Pseudomonas aeruginosa ATCC®9027™ (results shown below), (c) the yeast Candida albicans ATCC®10231™ (results shown below), and (d) the fungus Aspergillus niger ATCC®16404™ (results shown below). In brief, the broth microdilution assay was set up as previously described (see 2.1). After incubation, the MBC was determined by investigating the presence of viable microorganisms at the MIC and following higher concentrations (MICx2, MICx4, and so on) using standard CFU enumeration techniques. For each combination evaluated, this test was repeated at least 5 times. The collected data were further analyzed in MS Excel. Mean concentration data (expressed as log CFU/ml) were visualized in a table format in which the MBC was highlighted.

[2] = system: Staphylococcus aureus ATCC® 6538™; experiment: MIC determination, broth microdilution, GOX+LPO with potentiator candidate; assay type: cell-based; conditions: S. aureus; guaiacol added as enhancing agent
Method: (§1) The minimum inhibitory concentration (MIC) is defined as the lowest concentration of an antimicrobial agent that results in a complete inhibition of microbial growth (determined via visual evaluation or absorbance measurements) after overnight incubation. This endpoint measurement is used to define the microbial susceptibility towards an antimicrobial agent. Here, the antimicrobial agent is a combination of the natural enzymes GOX+LPO.
(§2) To determine the MIC of the described combinations, a classical broth microdilution assay was used to determine the susceptibility of a series of microbes commonly detected in infected wounds, including (a) the Gram-positive bacterium Staphylococcus aureus ATCC® 6538™ (results shown below), (b) the Gram-negative bacterium Pseudomonas aeruginosa ATCC®9027™ (results shown below), (c) the yeast Candida albicans ATCC®10231™ (results shown below), and (d) the fungus Aspergillus niger ATCC®16404™ (results shown below). In brief, a […] serial dilution of the enzymatic GOX+LPO solution was prepared in a transparent, flat-bottomed 96-well test plate with final concentrations ranging from 0.005 to 0.00000977% (v/v). To each well, a fixed volume of the enzymatic substrate containing 3,3% (w/v) glucose and 0,084% (w/v) potassium iodide, as well as the microbial inoculum with an OD600 of 0.1 was added. In the event the enzyme combination was evaluated in the presence of a potentiator candidate, the latter was added together with the enzymatic substrate in a final concentration ranging from 100 to 0,00125% (v/v). For each combination evaluated, a blank (no addition of microbial inoculum) was included. Positive (inoculum only) and negative (background solution only) were included to evaluate the performance of the test and to select the enzymatic GOX+LPO concentration at which no microbial growth is detected (i.e., absorbance equal to that of the background solution only). Then, the 96-well test plate was incubated for 24 hours at 37° C. (S. aureus, P. aeruginosa and C. albicans) or 25° C. (A. niger). After incubation, the absorbance of each well was measured using a plate spectrophotometer (Spectramax ID3, Molecular Devices). For each combination evaluated, this test was repeated at least 5 times. The collected data were further analyzed in MS Excel. Mean absorbance data were visualized in a table format in which the MIC was highlighted.

[3] = system: Pseudomonas aeruginosa ATCC®9027™; experiment: as above; assay type: cell-based; conditions: P. aeruginosa; guaiacol added as enhancing agent
Method: as §1, §2

Lactoperoxidase = Lactoperoxidase (Bos taurus, UniProt P80025); experiment: Lactoperoxidase (LPO) activity, spectrophotometric assay (ABTS); assay type: biochemical; conditions: concentration not given
Method: Lactoperoxidase is a member of the heme peroxidase family of enzymes that, together with a catalytic anion (such as I^−, derived from KI, present in the substrate), will catalyse the oxidation of H2O2, leading to hypojodite (IO^−). This hypojodite is a reactive oxygen species (ROS). To measure the enzymatic activity of LPO, a standard spectrophotometric assay is performed. In brief, H2O2 combined with 2,2′-azino-bis (3-ethylbenzothiazoline-6-sulfonzuur (ABTS) is catalysed by LPO so that the formation of a coloured compound is achieved that can in turn be measured by spectrophotometry. LPO was tested in 3 different concentrations, i.e., 50, 10 and 1 mg/ml. Each reaction mixture was tested in duplo. In the event LPO activity was evaluated in the presence of a potentiator candidate (=a molecule that might be able to augment the enzymatic activity of LPO), the latter was added in a low and high concentration ranging from 100 to 0.1 mg/ml. The blank consisted of the reaction mix in which H2O2 was absent. The absorbance was immediately measured with a plate reader (Spectramax ID3, Molecular Devices) every 12 seconds for 5 minutes at 20° C. For each combination evaluated, this test was repeated at least 2 times. Results were further analysed in MS Excel and expressed as U/g. Mean blank-corrected data±SD were plotted. Statistical significance compared to the combination without potentiator candidate (reference) was calculated using students' t-tests. Significance is achieved when the obtained p-value is lower than 0,05. Significance levels were defined as p<0.05=*; p<0.01=** and p<0.001=***.

GOX, sequence (P13006 17-605): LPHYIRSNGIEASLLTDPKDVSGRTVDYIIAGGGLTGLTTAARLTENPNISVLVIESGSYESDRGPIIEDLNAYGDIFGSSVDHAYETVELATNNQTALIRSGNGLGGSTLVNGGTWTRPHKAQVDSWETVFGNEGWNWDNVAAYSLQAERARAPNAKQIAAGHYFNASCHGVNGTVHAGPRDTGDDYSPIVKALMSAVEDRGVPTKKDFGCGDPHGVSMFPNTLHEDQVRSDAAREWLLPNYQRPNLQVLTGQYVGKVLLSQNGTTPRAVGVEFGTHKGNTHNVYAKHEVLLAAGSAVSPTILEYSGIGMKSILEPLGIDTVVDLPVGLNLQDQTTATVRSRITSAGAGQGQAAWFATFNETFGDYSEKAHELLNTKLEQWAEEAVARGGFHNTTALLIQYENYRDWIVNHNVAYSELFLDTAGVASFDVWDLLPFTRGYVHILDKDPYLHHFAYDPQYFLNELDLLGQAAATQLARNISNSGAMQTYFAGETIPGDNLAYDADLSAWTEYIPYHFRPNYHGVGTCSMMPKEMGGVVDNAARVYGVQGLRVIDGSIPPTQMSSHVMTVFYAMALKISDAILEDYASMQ

With `[Br-].[K+]` [KBr, potassium bromide, reference compound] the “antimicrobial efficacy against S. aureus of halide alone, 0 vs 80 minute timepoint” value (“antimicrobial efficacy … vs 80 minute timepoint” for short) (S. aureus (ATCC®6538™)) was “did not result in any difference in antimicrobial efficacy”.
In the case of `[Cl-].[K+]` [KCl, potassium chloride, reference compound], the “antimicrobial efficacy … vs 80 minute timepoint” value (S. aureus (ATCC®6538™)) is reported as “did not result in any difference in antimicrobial efficacy”.
`[I-].[K+]` [KI, potassium iodide] was tested, and the “time to complete reduction of absolute S. aureus counts” value (S. aureus (ATCC®6538™); alginogel with GOX+LPO (1:1), halide 0,03% (v/v)) was 70 min, the “time to complete reduction of absolute S. aureus counts” value (S. aureus (ATCC®6538™); alginogel with GOX+LPO (1:1), halide 0,003% (v/v)) was 80 min and the “antimicrobial efficacy … vs 80 minute timepoint” value (S. aureus (ATCC®6538™)) was “did not result in any difference in antimicrobial efficacy”.
In the case of `N[C@@H](CS)C(=O)O` [cysteine, reference compound], the “GOX activity compared to reference” value (GOX) is reported as “significant lower GOX activity”.
In the case of `NCCO` [ethanolamine, reference compound], the “exposure time to complete reduction of absolute S. aureus counts (average)” value (S. aureus (ATCC®6538™); alginogel with GOX+LPO (1:1), enhancer 0,0005% (v/v)) is reported as 70 min.
With `COc1ccccc1O` [guaiacol, reference compound] the “MBC: GOX+LPO enzyme solution needed” value [1] was 0.00125 % (v/v), the “MIC: GOX+LPO enzyme solution needed to completely inhibit growth” value [2] was 0.0000781 % (v/v) and the “MIC: GOX+LPO enzyme solution needed to completely inhibit growth” value [3] was 0.00125 % (v/v).
With `CC(C)C[C@H](N)C(=O)O` [leucine, reference compound] the “LPO activity compared to reference” value (Lactoperoxidase) was “did not result in a significant difference”.
